What was measured:
[1] = molecular target: T1, full-length ATR (Homo sapiens, UniProt Q13535); assay: ATR Inhibition Assay (radioactive-phosphate incorporation); format: biochemical; conditions: Ki(app); 5 nM full-length ATR, 10 μM ATP, 800 μM target peptide, 25° C.
T1 construct: in the presence of 5 nM full-length ATR
How it was run: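 After a 10-min pre-incubation of compound with 5 nM enzyme at 25 °C, ATP was added to start the reaction (final 10 μM [γ-33P]ATP, 800 μM peptide; Tris/HCl pH 7.5, MgCl2, DTT), which ran 24 h. Incorporated 33P was captured on phosphocellulose filters, and Ki(app) was fitted by non-linear regression.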

[2] = molecular target: T2, intracellular ATR (Homo sapiens, UniProt Q13535); assay: Cellular ATR Inhibition Assay (H2AX phosphorylation, immunofluorescence microscopy); format: cell-based; conditions: HT29 cells, 2 mM hydroxyurea, percentage of phosphorylated H2AX Ser139-positive nuclei
T2 construct: endogenous in cells; host or cells: HT29
T2 sequence (Q13535 whole entry): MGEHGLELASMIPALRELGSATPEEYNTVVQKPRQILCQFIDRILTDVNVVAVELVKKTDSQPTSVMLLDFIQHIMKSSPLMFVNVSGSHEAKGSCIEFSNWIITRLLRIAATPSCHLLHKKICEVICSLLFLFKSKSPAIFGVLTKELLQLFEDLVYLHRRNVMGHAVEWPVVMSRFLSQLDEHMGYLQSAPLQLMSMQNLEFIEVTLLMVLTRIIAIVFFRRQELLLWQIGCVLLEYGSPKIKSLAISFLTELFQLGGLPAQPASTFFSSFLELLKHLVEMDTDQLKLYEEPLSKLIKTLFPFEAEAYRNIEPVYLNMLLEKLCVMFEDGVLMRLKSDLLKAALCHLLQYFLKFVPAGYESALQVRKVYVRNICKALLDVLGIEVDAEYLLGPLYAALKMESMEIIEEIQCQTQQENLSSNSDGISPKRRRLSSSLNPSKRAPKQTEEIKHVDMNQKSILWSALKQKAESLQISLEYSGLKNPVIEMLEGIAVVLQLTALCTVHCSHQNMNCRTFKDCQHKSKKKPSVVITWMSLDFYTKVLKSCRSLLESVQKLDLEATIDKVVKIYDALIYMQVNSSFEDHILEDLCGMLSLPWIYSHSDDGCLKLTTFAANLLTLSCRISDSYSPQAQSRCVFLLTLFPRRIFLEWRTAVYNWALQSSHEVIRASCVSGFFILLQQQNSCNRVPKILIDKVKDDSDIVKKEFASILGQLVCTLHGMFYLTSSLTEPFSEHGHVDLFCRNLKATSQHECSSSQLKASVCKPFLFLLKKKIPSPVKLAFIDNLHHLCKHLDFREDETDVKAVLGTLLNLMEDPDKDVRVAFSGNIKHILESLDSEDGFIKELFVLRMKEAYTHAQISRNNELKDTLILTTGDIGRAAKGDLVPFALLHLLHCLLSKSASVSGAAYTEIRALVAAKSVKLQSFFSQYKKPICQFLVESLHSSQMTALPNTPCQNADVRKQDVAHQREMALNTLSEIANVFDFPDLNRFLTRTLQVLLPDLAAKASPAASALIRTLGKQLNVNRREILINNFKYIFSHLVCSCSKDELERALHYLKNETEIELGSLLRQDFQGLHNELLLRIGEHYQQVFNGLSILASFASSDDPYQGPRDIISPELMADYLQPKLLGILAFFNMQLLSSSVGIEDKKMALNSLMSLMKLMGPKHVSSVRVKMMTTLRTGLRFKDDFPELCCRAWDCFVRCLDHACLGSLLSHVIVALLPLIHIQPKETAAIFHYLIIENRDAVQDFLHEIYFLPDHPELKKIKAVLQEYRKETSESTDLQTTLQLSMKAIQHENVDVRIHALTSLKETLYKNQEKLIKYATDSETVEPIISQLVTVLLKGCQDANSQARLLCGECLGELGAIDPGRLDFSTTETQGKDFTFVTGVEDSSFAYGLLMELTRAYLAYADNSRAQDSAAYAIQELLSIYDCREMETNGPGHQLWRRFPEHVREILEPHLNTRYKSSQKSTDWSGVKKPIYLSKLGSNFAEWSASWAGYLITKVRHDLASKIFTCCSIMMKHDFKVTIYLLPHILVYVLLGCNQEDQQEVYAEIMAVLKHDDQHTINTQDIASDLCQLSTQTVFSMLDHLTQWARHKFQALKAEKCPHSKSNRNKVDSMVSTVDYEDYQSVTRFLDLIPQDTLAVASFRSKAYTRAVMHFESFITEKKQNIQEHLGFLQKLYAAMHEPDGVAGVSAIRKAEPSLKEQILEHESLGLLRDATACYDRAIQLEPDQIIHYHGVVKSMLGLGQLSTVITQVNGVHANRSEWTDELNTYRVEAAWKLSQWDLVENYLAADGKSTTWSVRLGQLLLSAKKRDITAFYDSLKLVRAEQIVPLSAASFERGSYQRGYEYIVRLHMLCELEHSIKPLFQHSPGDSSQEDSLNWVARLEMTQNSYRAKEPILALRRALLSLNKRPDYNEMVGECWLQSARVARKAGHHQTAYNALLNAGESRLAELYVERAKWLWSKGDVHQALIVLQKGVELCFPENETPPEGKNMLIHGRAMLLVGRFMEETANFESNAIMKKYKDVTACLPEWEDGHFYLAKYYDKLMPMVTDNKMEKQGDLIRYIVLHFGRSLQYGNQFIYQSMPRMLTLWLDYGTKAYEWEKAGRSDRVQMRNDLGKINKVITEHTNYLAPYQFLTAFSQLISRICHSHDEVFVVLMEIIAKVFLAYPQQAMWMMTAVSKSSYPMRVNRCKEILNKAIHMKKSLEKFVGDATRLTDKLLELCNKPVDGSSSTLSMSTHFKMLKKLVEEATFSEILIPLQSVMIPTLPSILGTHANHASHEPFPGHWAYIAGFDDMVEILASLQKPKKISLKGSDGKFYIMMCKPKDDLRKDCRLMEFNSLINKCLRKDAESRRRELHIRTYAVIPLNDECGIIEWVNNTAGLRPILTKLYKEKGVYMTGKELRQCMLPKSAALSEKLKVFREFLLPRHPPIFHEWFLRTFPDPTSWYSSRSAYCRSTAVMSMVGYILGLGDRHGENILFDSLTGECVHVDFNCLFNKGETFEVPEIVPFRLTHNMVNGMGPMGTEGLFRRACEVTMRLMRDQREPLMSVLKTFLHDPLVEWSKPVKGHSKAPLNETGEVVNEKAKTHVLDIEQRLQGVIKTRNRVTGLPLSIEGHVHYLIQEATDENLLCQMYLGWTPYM
T2 sequence (Q8WXE1 whole entry partner): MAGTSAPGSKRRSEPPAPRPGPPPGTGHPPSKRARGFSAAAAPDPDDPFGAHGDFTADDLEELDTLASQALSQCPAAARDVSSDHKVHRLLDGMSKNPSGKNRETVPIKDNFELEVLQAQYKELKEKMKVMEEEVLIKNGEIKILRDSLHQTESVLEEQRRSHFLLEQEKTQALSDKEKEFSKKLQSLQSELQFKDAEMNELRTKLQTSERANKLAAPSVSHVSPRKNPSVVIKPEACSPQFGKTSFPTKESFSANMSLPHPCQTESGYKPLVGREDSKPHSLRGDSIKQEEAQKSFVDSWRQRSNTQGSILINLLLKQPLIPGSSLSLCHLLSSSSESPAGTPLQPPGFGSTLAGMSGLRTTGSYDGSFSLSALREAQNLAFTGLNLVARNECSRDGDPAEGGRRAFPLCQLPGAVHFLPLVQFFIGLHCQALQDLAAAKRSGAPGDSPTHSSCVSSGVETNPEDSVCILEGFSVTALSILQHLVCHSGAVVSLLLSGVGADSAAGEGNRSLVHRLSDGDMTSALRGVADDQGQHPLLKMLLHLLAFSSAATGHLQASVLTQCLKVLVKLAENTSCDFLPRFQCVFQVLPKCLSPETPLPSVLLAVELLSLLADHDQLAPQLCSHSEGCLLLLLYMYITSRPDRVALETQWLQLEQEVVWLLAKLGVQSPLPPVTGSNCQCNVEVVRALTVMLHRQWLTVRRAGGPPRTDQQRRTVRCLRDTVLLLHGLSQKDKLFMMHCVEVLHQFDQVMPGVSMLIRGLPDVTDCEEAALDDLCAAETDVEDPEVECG
Description: Compounds were screened for their ability to inhibit intracellular ATR using an immunofluorescence microscopy assay to detect phosphorylation of the ATR substrate histone H2AX in hydroxyurea treated cells. HT29 cells were plated at 14,000 cells per well in 96-well black imaging plates (BD 353219) in McCoy's 5A media (Sigma M8403) supplemented with 10% foetal bovine serum (JRH Biosciences 12003), Penicillin/Streptomycin solution diluted 1:100 (Sigma P7539), and 2 mM L-glumtamine (Sigma G7513), and allowed to adhere overnight at 37° C. in 5% CO2. Compounds were then added to the cell media from a final concentration of 25 μM in 3-fold serial dilutions and the cells were incubated at 37° C. in 5% CO2. After 15 min, hydroxyurea (Sigma H8627) was added to a final concentration of 2 mM.
After 45 min of treatment with hydroxyurea, the cells were washed in PBS, fixed for 10 min in 4% formaldehyde diluted in PBS (Polysciences Inc 18814), washed in 0.2% Tween-20 in PBS (wash buffer), and permeabilised for 10 min in 0.5% Triton X-100 in PBS, all at room temperature. The cells were then washed once in wash buffer and blocked for 30 min at room temperature in 10% goat serum (Sigma G9023) diluted in wash buffer (block buffer). To detect H2AX phosphorylation levels, the cells were then incubated for 1 h at room temperature in primary antibody (mouse monoclonal anti-phosphorylated histone H2AX Ser139 antibody; Upstate 05-636) diluted 1:250 in block buffer. The cells were then washed five times in wash buffer before incubation for 1 h at room temperature in the dark in a mixture of secondary antibody (goat anti-mouse Alexa Fluor 488 conjugated antibody; Invitrogen A11029) and Hoechst stain (Invitrogen H3570); diluted 1:500 and 1:5000, respectively, in wash buffer. The cells were then washed five times in wash buffer and finally 100 ul PBS was added to each well before imaging.
Cells were imaged for Alexa Fluor 488 and Hoechst intensity using the BD Pathway 855 Bioimager and Attovision software (BD Biosciences, Version 1.6/855) to quantify phosphorylated H2AX Ser139 and DNA staining, respectively. The percentage of phosphorylated H2AX-positive nuclei in a montage of 9 images at 20× magnification was then calculated for each well using BD Image Data Explorer software (BD Biosciences Version 2.2.15). Phosphorylated H2AX-positive nuclei were defined as Hoechst-positive regions of interest containing Alexa Fluor 488 intensity at 1.75-fold the average Alexa Fluor 488 intensity in cells not treated with hydroxyurea. The percentage of H2AX positive nuclei was finally plotted against concentration for each compound and IC50s for intracellular ATR inhibition were determined using Prism software (GraphPad Prism version 3.0cx for Macintosh, GraphPad Software, San Diego Calif., USA).

T1 sequence (Q13535 whole entry): as the sequence (Q13535 whole entry) above

Row | SMILES | Ki [1] | IC50 [2]
1 | Nc1ncc(N2CCN(S(=O)(=O)c3ccoc3)CC2)nc1-c1nnc(-c2ccccc2)o1 [Compound I-90, 5-(4-(furan-3-ylsulfonyl)piperazin-1-yl)-3-(5-phenyl-1,3,4-oxadiazol-2-yl)pyrazin-2-amine] | 100 to 1000 nM | –
2 | Nc1ncc(C2=CCN(C(=O)N3CCCNCC3)CC2)nc1-c1nc2ccccc2[nH]1 [Compound I-279, (4-(5-amino-6-(1H-benzo[d]imidazol-2-yl)pyrazin-2-yl)-5,6-dihydropyridin-1(2H)-yl)(1,4-diazepan-1-yl)methanone] | 100 to 1000 nM | –
3 | Nc1ncc(N2CCN(C(=O)N3CCCCC3)CC2)nc1C(=O)Nc1ccccn1 [Compound I-247, 3-amino-6-(4-(piperidine-1-carbonyl)piperazin-1-yl)-N-(pyridin-2-yl)pyrazine-2-carboxamide] | 1000 to 10000 nM | –
4 | CCS(=O)(=O)N1CC2CN(c3cnc(N)c(-c4nc5ccc(C)cc5[nH]4)n3)CC2C1 (stereo not drawn) [Compound I-158, 5-(5-(ethylsulfonyl)hexahydropyrrolo[3,4-c]pyrrol-2(1H)-yl)-3-(6-methyl-1H-benzo[d]imidazol-2-yl)pyrazin-2-amine] | 100 to 1000 nM | –
5 | COCC(=O)N1CCN(c2cnc(N)c(-c3nc4ccccc4[nH]3)n2)CC1 [Compound I-265, 1-(4-(5-amino-6-(1H-benzo[d]imidazol-2-yl)pyrazin-2-yl)piperazin-1-yl)-2-methoxyethanone] | 1000 to 10000 nM | –
6 | Nc1ncc(N2CCN(S(=O)(=O)c3ccccc3)CC2)nc1C(=O)Nc1ccccn1 [Compound I-207, 3-amino-6-(4-(phenylsulfonyl)piperazin-1-yl)-N-(pyridin-2-yl)pyrazine-2-carboxamide] | 100 to 1000 nM | –
7 | Cc1ccc2nc(-c3nc(N4CCC(O)CC4)cnc3N)[nH]c2c1 [Compound I-5, 1-(5-amino-6-(6-methyl-1H-benzo[d]imidazol-2-yl)pyrazin-2-yl)piperidin-4-ol] | 1000 to 10000 nM | –
8 | COC(=O)N1CCN(c2cnc(N)c(C(=O)Nc3ccccn3)n2)CC1 [Compound I-242, methyl 4-(5-amino-6-(pyridin-2-ylcarbamoyl)pyrazin-2-yl)piperazine-1-carboxylate] | 1000 to 10000 nM | –

Other lines, results leading:

Row | Ki [1] | IC50 [2] | SMILES
9 | < 100 nM | 1000 to 5000 nM | CN(C)S(=O)(=O)N1CC=C(c2cnc(N)c(-c3nc4cccnc4[nH]3)n2)CC1 [Compound I-26, 4-(5-amino-6-(3H-imidazo[4,5-b]pyridin-2-yl)pyrazin-2-yl)-N,N-dimethyl-5,6-dihydropyridine-1(2H)-sulfonamide]
10 | 100 to 1000 nM | 10000 to 30000 nM | CCS(=O)(=O)N1CCN(c2cnc(N)c(-c3nc4ccccc4[nH]3)n2)CC1 [Compound I-16, 3-(1H-benzo[d]imidazol-2-yl)-5-(4-(ethylsulfonyl)piperazin-1-yl)pyrazin-2-amine]
11 | < 100 nM | < 1000 nM | CCS(=O)(=O)N1CC=C(c2cnc(N)c(-c3nc4cccnc4[nH]3)n2)CC1 [Compound I-27, 5-(1-(ethylsulfonyl)-1,2,3,6-tetrahydropyridin-4-yl)-3-(3H-imidazo[4,5-b]pyridin-2-yl)pyrazin-2-amine]
12 | < 100 nM | 1000 to 5000 nM | Cc1ccc2nc(-c3nc(-n4ccc(=O)cc4)cnc3N)[nH]c2c1 [Compound I-24, 1-(5-amino-6-(6-methyl-1H-benzo[d]imidazol-2-yl)pyrazin-2-yl)pyridin-4(1H)-one]
13 | < 100 nM | 5000 to 10000 nM | CCS(=O)(=O)N1CC=C(c2cnc(N)c(-c3nnc(-c4ccccc4)o3)n2)CC1 [Compound I-28, 5-(1-(ethylsulfonyl)-1,2,3,6-tetrahydropyridin-4-yl)-3-(5-phenyl-1,3,4-oxadiazol-2-yl)pyrazin-2-amine]
14 | < 100 nM | – | CCS(=O)(=O)N[C@@H]1C2CN(c3cnc(N)c(-c4nnc(-c5ccc(CNC)cc5)o4)n3)C[C@@H]21 (stereo partly drawn) [Compound I-369]
15 | < 100 nM | – | Nc1ncc(-n2ccc(=O)cc2)nc1-c1nnc(-c2ccccc2)o1 [Compound I-286, 1-[5-amino-6-(5-phenyl-1,3,4-oxadiazol-2-yl)pyrazin-2-yl]pyridin-4-one]
16 | < 100 nM | – | COCCOC(=O)N1CC=C(c2cnc(N)c(-c3nnc(-c4ccccc4)o3)n2)CC1 [Compound I-224, 2-methoxyethyl 4-(5-amino-6-(5-phenyl-1,3,4-oxadiazol-2-yl)pyrazin-2-yl)-5,6-dihydropyridine-1(2H)-carboxylate]
